In US20250250218A1, “Anti-Amyloidogenic Curcumin Analogues” (MCPHS University, priority 2024, published 2025):

Columns and labels:
Aβ1-42 peptide = Aβ1-42 peptide (Homo sapiens, UniProt P05067); test: Thioflavin T (ThT) fluorescence assay of Aβ1-42 aggregation (SensoLyte kit); format: biochemical; conditions: Aβ1-42 35 μM, minimum of five concentrations, read-out: IC50, inhibition of Aβ aggregation (anti-amyloidogenic activity)
Method: All newly synthesized compounds were screened for their anti-amyloidogenic activity on Aβ1-42 peptides, using Phenol Red as the internal standard—all at 100 μM. […] To obtain the IC50 values (shown in FIGS. 4A-4D), all compounds were tested at a minimum of five different concentrations.
Samples of ThT (final concentration of 200 μM) and Aβ1-42 peptide (final concentration of 35 μM) were incubated at 37° C. in a black clear bottom 96-well plate. The ThT fluorescence intensity of each sample was immediately measured every 5 min for 120 min, with 440/485 nm excitation/emission filters and with 15 sec shaking between reads to facilitate aggregation. An inhibitor control containing Aβ1-42 and a supplied aggregation inhibitor (Phenol Red), at a final concentration of 100 μM. The positive control contained Aβ1-42 without an inhibitor. […] All the wells were brought to 100 μL as a final volume.

Aβ42 = test: Human Aβ42 ELISA on heads of treated transgenic flies; format: in vivo; conditions: any concentration fed (1, 10, 100 mcg/mL)
Method: To perform the ELISA, the samples were first thawed on ice. A protease inhibitor cocktail with AEBSF (a serine protease inhibitor) was added to each sample, with a final concentration of 1 mM, and were then centrifuged to remove the large particulate matter. After centrifugation, samples were diluted with Standard Diluent Buffer at a 1:50 ratio to ensure sample concentrations would be within the range of the standard curve. […] After 30 min, the solution was thoroughly aspirated, and the wells were washed four times with Ix Wash Buffer. Stabilizing Chromogen (100 mcL) was added to each well and the plate was incubated in the dark. After 30 min, 100 mcL of the Stop Solution was added to every well and the plate was read immediately at an absorbance of 450 nm.
Absorbance measurements for each sample and control were averaged, and from the calibration curve the corresponding level of AB was determined. Data were analyzed using a one-way ANOVA. […] Thus, the physiological benefit observed when the flies were fed either Compound 25, 33, or 34 at varying concentrations, was most likely a result of a decrease in brain plaque burden.

[1] = test system: Drosophila melanogaster UAS-Aβ 1-42/nSyb-Gal4; test: Forced climbing assay in transgenic flies overexpressing Aβ; format: in vivo
Text: To produce the transgenic Drosophila line of interest, UAS-Aβ42 1-42 female virgins were crossed with nSyb-Gal4 males. UAS-Aβ42 1-42 has a TM3, Sb balancer on the third chromosome, resulting in the mutant Sb gene, indicative of stubble bristles as a dominant marker. When crossed with the driver line, such as nSyb-Gal4, the transgenic line will either be UAS-Aβ42 1-42/nSyb-Gal4 or nSyb-Gal4/TM3, Sb. […] All offspring with the inherited balanced nSyb-Gal4TM3, Sb were negatively selected. Once enough F1 progeny of the transgenic line of interest were available, testing of the compounds was carried out. The extended chalcones of interest were dissolved in DMSO to a concentration of 5 mg/mL. […] These three concentrations were then introduced to each respective group. […] A forced climbing assay was conducted on the transgenic flies exposed to the extended chalcone compounds. […] The climbing assay was conducted five times a day, beginning on the seventh day after the flies were exposed to the compounds. Vials were marked with top, middle, and bottom sections, separated by one inch.

SH-SY5Y cells = test: MTT cell viability assay (neurotoxicity and neuroprotection); conditions: 48 h; for decrease in cell viability, compound co-administered with Aβ42: compound at IC50 concentration + Aβ42 20 μM, Aβ42 alone […]%; for cytotoxicity / neurotoxicity of compound alone: compound at its IC50 concentration
Method: To test neurotoxicity and neuroprotective effects of the compounds, a 3-(4,5-dimethylthiazol-2-yl)-2,5-diphenyltetrazolium bromide (MTT) assay was performed using compounds 25, 33, and 34 as described [8].
SH-SY5Y cells (CRL-2266, ATCC, Manassas, VA) were maintained in SH-SY5Y cells (CRL-2266, ATCC, Manassas, VA, USA) were maintained in Dulbecco's Modified Eagle's Medium and Ham's F-12 Medium (DMEM: F12) supplemented with 50 mL fetal bovine serum (10%) and incubated at 37° C., 5% CO2, and 90% humidity. For the MTT assay, cells were sub-cultured using trypsin-ethylenediaminetetraacetic acid (EDTA) (0.25%) solution into clear 96-well plates and allowed to adhere for 24 h. […] All groups were incubated for 48 h.
The MTT assay (Ab211091, Abcam, Waltham, MA, USA) was used to measure cell viability with metabolically active cells reducing the MTT reagent into insoluble formazan. Following the removal of the treatment media, 50 μL of serum-free media and 50 riL of MTT Reagent was added to each well. The plate was then incubated at 37° C. for 3 h. After incubation, 150 μL of MTT Solvent was added into each well. The plate was then wrapped in foil and placed on an orbital plate shaker for 15 min. The absorbance was read at 590 nm.

[2] = 1 mcg/mL fly food, control 4.33%
[3] = 1 mcg/mL fly food, control approximately 95%

Aβ1-42 peptide, sequence (P05067 672-713 limits assumed): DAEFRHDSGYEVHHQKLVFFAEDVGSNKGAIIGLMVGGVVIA

Compound	IC50 (Aβ1-42 peptide)	change in levels of Aβ in fly heads (ELISA) (Aβ42)	percentage of flies in bottom section after 10 s ([1]; 10 mcg/mL fly food)	percentage of flies in middle section after 10 s ([1]; 10 mcg/mL fly food)	percentage climbing compared to control, middle, 95% CI ([1]; 10 mcg/mL, FIG. 8)	decrease in cell viability, compound co-administered with Aβ42 (SH-SY5Y cells)	cytotoxicity / neurotoxicity of compound alone (SH-SY5Y cells)	percentage of flies in middle section after 10 s [1, 2]	percentage of flies in bottom section after 10 s [1, 3]	percentage climbing compared to control, bottom, 95% CI ([1]; 1 mcg/mL, FIG. 8)	percentage climbing compared to control, middle, 95% CI ([1]; 1 mcg/mL, FIG. 8)	other results
COc1ccc(C(=O)/C=C/C=C/c2ccc(N(C)C)cc2)cc1 [Compound 15, (2E,4E)-5-(4-(dimethylamino)phenyl)-1-(4-methoxyphenyl)penta-2,4-dien-1-one]	3200 nM	–	–	–	–	–	–	–	–	–	–	–
(2E,4E)-1-(4-chlorophenyl)-5-(4-(piperidin-1-yl)phenyl)penta-2,4-dien-1-one [Compound 34]	620 nM	no statistically significant change	82.50%	15.00%	−18.78-−2.558	60%	no cytotoxicity	–	–	–	–	percentage of flies in bottom section after 10 s ([1]; 100 mcg/mL fly food): 81.26%; percentage of flies in middle section after 10 s ([1]; 100 mcg/mL fly food): 14.90%; percentage climbing compared to control, bottom, 95% CI ([1]; 100 mcg/mL, FIG. 8): 3.395-24.75; percentage climbing compared to control, middle, 95% CI ([1]; 100 mcg/mL, FIG. 8): −18.67-−2.463
O=C(/C=C/C=C/c1ccc(N2CCCCC2)cc1)c1ccc(Cl)cc1 [Compound 33, (2E,4E)-1-(4-chlorophenyl)-5-(4-(piperidin-1-yl)phenyl)penta-2,4-dien-1-one]	1100 nM	no statistically significant change	74.00%	22.33%	−26.04-−9.964	52%	no cytotoxicity	26.00%	66.00%	18.63-40.04	−29.70-−13.63	percentage of flies in top section after 10 s ([1]; 1 mcg/mL fly food, control 0.33%): 8.00%; percentage climbing compared to control, top, 95% CI ([1]; 1 mcg/mL, FIG. 8): −12.8-−2.516; percentage climbing compared to control, bottom, 95% CI ([1]; 10 mcg/mL, FIG. 8): 10.63-32.04
CN(C)c1ccc(/C=C/C=C/C(=O)c2cc(Cl)cc(Cl)c2)cc1 [Compound 25, (2E,4E)-1-(3,5-dichlorophenyl)-5-(4-(dimethylamino)phenyl)penta-2,4-dien-1-one]	910 nM	no statistically significant change	–	–	–	52%	no cytotoxicity	15.56%	82.15%	1.543-24.82	−18.97-−3.487	–
CSc1ccc(C(=O)/C=C/C=C/c2ccc(N(C)C)cc2)cc1 [Compound 18, (2E,4E)-5-(4-(dimethylamino)phenyl)-1-(4-(methylthio)phenyl)penta-2,4-dien-1-one]	1500 nM	–	–	–	–	–	–	–	–	–	–	–
CN(C)c1ccc(C=CC=CC(=O)c2ccc(Cl)cc2)cc1 [Compound 3]	2400 nM	–	–	–	–	–	–	–	–	–	–	–
